The source made the active and inactive calls. The rule behind the calls is not given here.
Key:
[1] = target: T1, N-terminal Xaa-Pro-Lys N-methyltransferase 1 (Homo sapiens, UniProt Q9BV86); assay: Inhibition of N-terminal 6-his tagged TEV fused full length human NTMT1 (1 to 222 residues) expressed in Escherichia coli BL21-Codonplus(DE3)-RIL cells using GPKRIA peptide as substrate preincubated with compound for 10 mins followed by substrate addition and measured immediately by SAHH-coupled fluorescence analysis
T1 sequence (Q9BV86 whole entry): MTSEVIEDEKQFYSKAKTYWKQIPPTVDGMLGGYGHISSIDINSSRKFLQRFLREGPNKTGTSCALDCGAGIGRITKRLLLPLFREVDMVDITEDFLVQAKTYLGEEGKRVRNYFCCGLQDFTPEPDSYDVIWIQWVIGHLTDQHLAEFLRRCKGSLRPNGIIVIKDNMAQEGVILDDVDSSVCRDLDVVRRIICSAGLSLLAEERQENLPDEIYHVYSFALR

[2] = Toxicity in Balb/c mouse assessed as effect on bright behaviour at 250 to 350 mg/kg, po administered as single dose for 2 weeks; assay type: organism-based; conditions: in vivo, 336 h, dose 250-350 mg/kg
[3] = Toxicity in Balb/c mouse assessed as effect on response at 250 to 350 mg/kg, po administered as single dose for 2 weeks; assay type: organism-based; conditions: in vivo, 336 h, dose 250-350 mg/kg
[4] = AUClast in CD-1 mouse at 25 mg/kg, po measured upto 24 hrs; assay type: ADME, organism-based; design: time < 24 hrs, dose 25 mg/kg, route po; conditions: in vivo
[5] = Toxicity in Balb/c mouse assessed as effect on body weight loss at 250 to 350 mg/kg, po administered as single dose for 2 weeks; assay type: organism-based; conditions: in vivo, 336 h, dose 250-350 mg/kg
[6] = Toxicity in Balb/c mouse assessed as effect on response at 100 to 200 mg/kg, po administered as single dose for 2 weeks; assay type: organism-based; conditions: in vivo, 336 h, dose 100-200 mg/kg
[7] = Toxicity in Balb/c mouse assessed as effect on alert behaviour at 250 to 350 mg/kg, po administered as single dose for 2 weeks; assay type: organism-based; conditions: in vivo, 336 h, dose 250-350 mg/kg
[8] = Toxicity in Balb/c mouse assessed as effect on body weight loss at 100 to 200 mg/kg, po administered as single dose for 2 weeks; assay type: organism-based; conditions: in vivo, 336 h, dose 100-200 mg/kg
[9] = Drug concentration in CD-1 mouse plasma at 25 mg/kg, po measured after 4 hrs; assay type: ADME, organism-based
[10] = Tmax in CD-1 mouse at 25 mg/kg, po measured upto 24 hrs; assay type: ADME, organism-based; conditions: in vivo
[11] = Half-life in CD-1 mouse at 25 mg/kg, po measured upto 24 hrs; assay type: ADME, organism-based; conditions: in vivo
[12] = Toxicity in Balb/c mouse assessed as animal death at 400 mg/kg, po administered as single dose and measured 15 mins post administration; assay type: organism-based; conditions: in vivo, 0.25 h
[13] = Dose normalized AUClast in CD-1 mouse at 25 mg/kg, po measured upto 24 hrs; assay type: ADME, organism-based; conditions: in vivo
[14] = target: T2, Ceramide glucosyltransferase (Homo sapiens) (UniProt Q16739); conditions: HCT-116, dose 30.0 nM, time 52.0 hrs
T2 sequence (whole entry): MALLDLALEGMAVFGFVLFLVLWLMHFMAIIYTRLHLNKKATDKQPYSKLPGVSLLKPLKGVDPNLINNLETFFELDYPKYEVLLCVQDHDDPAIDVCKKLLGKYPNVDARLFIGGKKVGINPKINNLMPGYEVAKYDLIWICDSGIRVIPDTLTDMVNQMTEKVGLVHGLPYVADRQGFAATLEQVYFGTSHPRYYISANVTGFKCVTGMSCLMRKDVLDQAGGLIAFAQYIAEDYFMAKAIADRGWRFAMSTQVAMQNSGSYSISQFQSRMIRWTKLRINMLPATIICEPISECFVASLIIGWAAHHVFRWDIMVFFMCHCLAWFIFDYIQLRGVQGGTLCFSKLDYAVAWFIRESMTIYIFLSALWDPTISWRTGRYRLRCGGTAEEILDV

## CC(C)(NC(=O)O[C@@H]1CN2CCC1CC2)c1csc(-c2ccc(F)nc2)n1
[1]
  IC50: 1.5 µM

## COc1ccc(-c2nc(C(C)(C)NC(=O)O[C@@H]3CN4CCC3CC4)cs2)cc1
[1]
  IC50: 54 µM

## CC(C)(NC(=O)O[C@@H]1CN2CCC1CC2)c1csc(-c2ccoc2)n1
[1]
  IC50: 91 µM

## CC(C)(NC(=O)O[C@@H]1CN2CCC1CC2)c1csc(-c2ccc(F)c(O)c2)n1
[2]
  Activity: Non-Toxic
[3]
  Activity: Non-Toxic
[4]
  AUC(0-t) at 24 h: 157 ng·h/mL
[5]
  Activity: Non-Toxic
[6]
  Activity: Non-Toxic
[7]
  Activity: Non-Toxic
[8]
  Activity: Non-Toxic
[9]
  concentration at 4 h: > 18.8 ng/mL
[10]
  Tmax: 0.25 h
[11]
  half-life: 2.63 h
[12]
  Activity: Toxic
[13]
  AUClast/dose: 6.27 ng·h/mL

## CC(C)(NC(=O)Oc1cccnc1)c1csc(-c2ccc(F)cc2)n1
[1]
  IC50: > 100 µM

## CC(C)c1nc(C(C)(C)NC(=O)O[C@@H]2CN3CCC2CC3)cs1
[1]
  IC50: > 100 µM

## CC(C)(NC(=O)O[C@@H]1CN2CCC1CC2)c1csc(I)n1
[1]
  IC50: 46 µM

## CC(C)(NC(=O)O[C@@H]1CN2CCC1CC2)c1csc(-c2cncnc2)n1
[1]
  IC50: > 100 µM

## CC(C)(NC(=O)O[C@@H]1CN2CCC1CC2)c1csc(-c2ccccc2O)n1
[1]
  IC50: 4.6 µM

## CC(C)(NC(=O)O[C@H]1CCCNC1)c1csc(-c2ccc(F)cc2)n1
[1]
  IC50: > 100 µM

## CC(C)(NC(=O)O[C@@H]1CN2CCC1CC2)c1csc(-c2cccc3ccccc23)n1
[1]
  IC50: 44 µM

## CC(C)(NC(=O)O[C@@H]1CN2CCC1CC2)c1csc(-c2ccsc2)n1
[1]
  IC50: 9.1 µM

## CC(C)(NC(=O)N[C@@H]1CN2CCC1CC2)c1csc(-c2ccc(F)cc2)n1
[1]
  IC50: 40 µM

## CC(C)(C(=O)N[C@@H]1CN2CCC1CC2)c1csc(-c2ccc(F)cc2)n1
[1]
  IC50: > 100 µM

## CN1CCC[C@H](OC(=O)NC(C)(C)c2csc(-c3ccc(F)cc3)n2)C1
[1]
  IC50: 25 µM

## CC(C)(NC(=O)O[C@@H]1CN2CCC1CC2)c1csc(-c2cccc(O)c2)n1
[1]
  IC50: 0.56 µM

## CC(C)(NC(=O)O[C@@H]1CN2CCC1CC2)c1csc(-c2ccccc2N)n1
[1]
  IC50: 7.1 µM

## CC(C)(NC(=O)O[C@@H]1CN2CCC1CC2)c1csc(-c2ccc(F)cc2O)n1
[1]
  IC50: 0.3 µM

## CC(C)(NC(=O)O[C@@H]1CN2CCC1CC2)c1csc(-c2ccc(N)cc2)n1
[1]
  IC50: 7.5 µM

## CC(C)(NC(=O)O[C@@H]1CN2CCC1CC2)c1csc(-c2ccccn2)n1
[1]
  IC50: 3.7 µM

## CC(C)(NC(=O)O[C@@H]1CN2CCC1CC2)c1csc(-c2cccc([N+](=O)[O-])c2)n1
[1]
  IC50: 64 µM

## O=C(NCc1csc(-c2ccc(F)cc2)n1)O[C@@H]1CN2CCC1CC2
[1]
  IC50: > 100 µM

## CC(C)(NC(=O)O[C@@H]1CN2CCC1CC2)c1csc(-c2ccc(C(=O)O)cc2)n1
[1]
  IC50: > 100 µM

## CC(C)(NC(=O)O[C@@H]1CN2CCC1CC2)c1csc(-c2ccco2)n1
[1]
  IC50: 21 µM

## CC(C)(NC(=O)O[C@@H]1CN2CCC1CC2)c1csc(-c2ccc(F)cc2)n1
[14]
  inhibition: Active

## CC(C)(NC(=O)OCCN1CCCCC1)c1csc(-c2ccc(F)cc2)n1
[1]
  IC50: > 100 µM

## CNc1nc(C(C)(C)NC(=O)O[C@@H]2CN3CCC2CC3)cs1
[1]
  IC50: 50 µM

## CC(C)(NC(=O)O[C@@H]1CN2CCC1CC2)c1csc(-c2cccc(N)c2)n1
[1]
  IC50: 7.6 µM

## CC(C)(NC(=O)O[C@@H]1CN2CCC1CC2)c1csc(-c2cccs2)n1
[1]
  IC50: 2.4 µM

## CC(C)(NC(=O)O[C@@H]1CN2CCC1CC2)c1csc(-c2ccc(O)cc2)n1
[1]
  IC50: 25 µM

## CC(C)(NC(=O)O[C@@H]1CN2CCC1CC2)c1csc(-c2cccnc2)n1
[1]
  IC50: 2.8 µM

## CCCN1CCC[C@H](OC(=O)NC(C)(C)c2csc(-c3ccc(F)cc3)n2)C1
[1]
  IC50: 18 µM

Reference: ChEMBL document CHEMBL5316315 (J Med Chem, 2023)
